Columns and labels:
[1] = system: relative engraftment (CRU); test: Primary and secondary transplantation of mobilized mouse cells at limit dilution (CRU); assay type: in vivo, mice; conditions: compared to the other cohorts
Text: Mice (CD45.1) were mobilized according to the scheme shown in FIG. 24 and mobilized cells transplanted into CD45.2 mice at limit dilution.

[2] = system: hematopoietic stem and progenitor cell mobilization; conditions: described in U.S. Pat. No. 6,080,398; cited from earlier work
[3] = system: neutrophil activation markers (L-selectin, CD11b, CD18, CD66); test: Phase 1 clinical trial: neutrophil activation markers by flow cytometry; assay type: in vivo, human; conditions: monotherapy
Text: G-CSF, the traditional therapy of choice for mobilization of neutrophils, enhances neutrophil activation, as measured by CD11b and CD18, but this has been identified to be problematic, for example, in patients with sickle cell disease where activated neutrophils adhere to the endothelium, thereby increasing the risk of severe and life-threatening complications such as vaso-occlusive crises. […] In contrast, the administration of MGTA-145 monotherapy (across all six doses) induces less than a 2-fold change relative to baseline for the neutrophil activation markers of CD11b and CD18.

neutrophils = test: Phase 1 clinical trial: mobilization of neutrophils (automated hematology analyzer); conditions: monotherapy
Procedure: (§1) The dose of MGTA-145 was one of 0.0075 mg/kg, 0.015 mg/kg, 0.03 mg/kg, 0.075 mg/kg, 0.15 mg/kg, or 0.3 mg/kg. […] The dose of MGTA-145 was one of 0.015 mg/kg, 0.03 mg/kg, 0.075 mg/kg, or 0.15 mg/kg. […] The dose of MGTA-145 was one of 0.03 mg/kg or 0.075 mg/kg.
(§2) Mobilization of white blood cells (WBCs), neutrophils, lymphocytes, basophils, and eosinophils was quantified by automated hematology analyzer.

white blood cells (WBCs) = test: Phase 1 clinical trial: mobilization of white blood cells (automated hematology analyzer); conditions: monotherapy
Procedure: as §1, §2

CD34+CD90+CD45RA− cells = test: Phase 1 clinical trial: mobilization of CD34+CD90+CD45RA− cells into peripheral blood (flow cytometry); conditions: Part A monotherapy
CXCR2 = target: T1, CXCR2 (Homo sapiens, UniProt P25025); test: Phase 1 clinical trial: CXCR2 expression on peripheral blood neutrophils; assay type: in vivo
T1 construct: endogenous in cells; host or cells: peripheral blood neutrophils of trial subjects (in vivo dosing, ex vivo measurement)
T1 sequence (P25025 1-360): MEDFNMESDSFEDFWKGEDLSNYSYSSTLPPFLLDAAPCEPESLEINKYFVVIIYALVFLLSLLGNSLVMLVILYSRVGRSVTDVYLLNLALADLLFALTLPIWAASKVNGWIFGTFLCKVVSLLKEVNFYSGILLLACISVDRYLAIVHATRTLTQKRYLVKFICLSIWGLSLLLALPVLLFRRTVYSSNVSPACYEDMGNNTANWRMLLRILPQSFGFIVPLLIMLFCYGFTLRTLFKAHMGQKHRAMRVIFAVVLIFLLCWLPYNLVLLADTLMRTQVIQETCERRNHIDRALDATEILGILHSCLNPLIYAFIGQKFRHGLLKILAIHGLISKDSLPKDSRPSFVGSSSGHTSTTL
Procedure: Lines from bottom to top at 6 hrs post-administration represent 0.3 mg/kg, 0.15 mg/kg, 0.075 mg/kg, 0.03 mg/kg, 0.015 mg/kg, […], respectively.

CD34+ cells = test: Phase 1 clinical trial: mobilization of CD34+ cells into peripheral blood (multicolor flow cytometry); conditions: for Peak CD34+ (#/μL) Median (range) / Percent ≥20/μL: Part A
MMP-9 = test: Phase 1 clinical trial: plasma MMP-9 and TIMP-1 by sandwich immunoassay; assay type: in vivo, human; conditions: monotherapy, all six doses
Procedure: FIGS. 6A and 6B show the plasma levels of MMP-9 and molar ratio of MMP-9:TIMP-1, respectively, over the course of 24 hours following MGTA-145 monotherapy. MMP-9 is an enzyme involved in the breakdown of extracellular matrix and indicative of neutrophil migration whereas TIMP-1 blocks MMP-9 mediated migration. Therefore, an increase in MMP-9 or an increase in MMP-9:TIMP-1 ratio is indicative of increased neutrophil mobilization. […] The plasma levels of MMP-9 then decreased towards initial concentrations over the course of 24 hours.

[4] = G-CSF; Pulsiper et al. (2009) Blood; cited from earlier work
[5] = system: neutrophil activation markers (L-selectin, CD11b, CD18, CD66); conditions: 5 days of G-CSF treatment, reported by Falanga et al., Blood 1999; cited from earlier work
[6] = system: T cells, B cells and NK cells; conditions: cited from earlier work
[7] = higher doses (0.075, 0.15, 0.3 mg/kg), 2 hours post administration
[8] = lower doses (0.0075, 0.015, 0.03 mg/kg), between 1 and 2 hours post administration
[9] = MGTA-145 on Day 1, 0.03 mg/kg (n=4)
[10] = MGTA-145 on Day 1, 0.3 mg/kg (n=4)
[11] = 78 healthy donors mobilized with G-CSF (Chaidos et al, Blood. 2012)
[12] = Chen et al., 2019, G-CSF N = 112+, 1 LP
[13] = Devine et al, 2008, median yield of 1 LP, plerixafor N = 24, G-CSF N = 8

Question: Which results are given for “MGTA-145: CXCR2 agonist; truncated Gro-β with deletion of the first four N-terminal amino acids (SEQ ID NO: 2)”?
Answer: Engraftment rates, secondary transplantation [1]: vastly improved engraftment rates; Potency to induce hematopoietic stem and progenitor cell mobilization relative to Gro-β [2]: superior to that of Gro-β by multiple orders of magnitude; Fold change relative to baseline, CD66 ([3]; all doses except the highest (0.3 mg/kg)): < 2 fold; Fold change relative to baseline, CD11b and CD18 ([3]; all six doses): < 2 fold; Fold change relative to baseline, L-selectin ([3]; all six doses): < 2 fold; Initial plateau of neutrophil mobilization (neutrophils; [7]): 5-8 ×10^3 cells/μL; Peak mobilization of neutrophils (neutrophils; [8]): 13-15 ×10^3 cells/μL; Initial plateau of WBC mobilization (white blood cells (WBCs); [7]): 6-10 ×10^3 cells/μL; Peak mobilization of WBCs (white blood cells (WBCs); [8]): 15-17 ×10^3 cells/μL; Time of peak CD34+CD90+CD45RA− mobilization post administration (CD34+CD90+CD45RA− cells): 30 min; Fold increase of CD34+CD90+CD45RA− cells (CD34+CD90+CD45RA− cells; 0.03 mg/kg): ~8.3 fold; Peak concentration of CD34+CD90+CD45RA− cells (CD34+CD90+CD45RA− cells; 0.03 mg/kg): ~3 cells/μL; Fold increase of CD34+CD90+CD45RA− cells (CD34+CD90+CD45RA− cells; the other doses): 2-3.5 fold; Peak concentration of CD34+CD90+CD45RA− cells (CD34+CD90+CD45RA− cells; the other doses): 1-1.6 cells/μL; CXCR2 expression recovery prior to the second dose (CXCR2; 0.07 mg/kg, staggered dosing, two consecutive days): ~80 % of baseline; CXCR2 on peripheral blood neutrophils (CXCR2; monotherapy, followed by recovery over 24 hours): rapid downregulation; Fold increase of CD34+ cells (CD34+ cells; Part A monotherapy, 0.03 mg/kg): 7 fold; Peak concentration of CD34+ cells (CD34+ cells; Part A monotherapy, 0.03 mg/kg): ~10 cells/μL; Time of peak CD34+ mobilization post administration (CD34+ cells; Part A monotherapy, across the six doses (0.0075-0.3 mg/kg)): about 30 minutes; Fold increase of CD34+ cells (CD34+ cells; Part A monotherapy, the other doses): 2-3 fold; Peak concentration of CD34+ cells (CD34+ cells; Part A monotherapy, the other doses (0.0075, 0.015, 0.075, 0.15, 0.3 mg/kg)): ~5 cells/μL; Peak CD34+ (#/μL) Median (range) (CD34+ cells; [9]): 12 (2-19) #/μL; Percent ≥20/μL (CD34+ cells; [9]): 0 (0/4) %; Peak CD34+ (#/μL) Median (range) (CD34+ cells; [10]): 3 (3-13) #/μL; Percent ≥20/μL (CD34+ cells; [10]): 0 (0/4) %; Molar ratio of MMP-9:TIMP-1 (MMP-9): rapid increase 30 minutes post-administration; Plasma levels of MMP-9 (MMP-9): increased sharply within 30 minutes post-administration

B1: G-CSF: Filgrastim (G-CSF), most common clinical hematopoietic stem cell mobilization protocol, five days (protein, UniProt P09919 31-207, looked up)
Granulocyte …: TPLGPASSLPQSFLLKCLEQVRKIQGDGAALQEKLVSECATYKLCHPEELVLLGHSLGIPWAPLSSCPSQALQLAGCLSQLHSGLFLYQGLLQALEGISPELGPTLDTLQLDVADFATTIWQQMEELGMAPALQPTQGAMPAFASAFQRRAGGVLVASHLQSFLEVSYRVLRHLAQP
modifications: filgrastim
Question: Which results are given for B1?
Answer: Tolerability [4]: Majority with bone pain,; Fold increase in neutrophil activation markers [5]: ~2.7 fold; TNC/kg donor weight, Median (range) ([6]; 40 healthy donors mobilized with G-CSF (Singhal et al, BMT. 2000)): 7.2 (3.2-14.0) ×10^8 cells; Frequency of CD3+ T cells in graft, Median (range) [6, 11]: 45.3 (21.8-75.4) % of CD45+; Frequency of CD4+ T cells in graft, Median (range) [6, 11]: 29.8 (12.6-56.5) % of CD45+; Frequency of CD8+ T cells in graft, Median (range) [6, 11]: 11.8 (4.1-29.2) % of CD45+; Frequency of CD19+ B cells in graft, Median (range) [6, 11]: 10.5 (0.9-34.8) % of CD45+; Frequency of CD56+ NK cells in graft, Median (range) [6, 11]: 3.2 (0.5-18.4) % of CD45+; Frequency of Tregs in graft, Median (range) [6, 11]: 3.5 (0.9-8.2) % of CD4+ T cells; Frequency of iNKT cells in graft, Median (range) [6, 11]: 0.04 (0.00-1.07) % of CD3+; CD3+ in graft, Median [6, 12]: 2.5e+08 kg⁻¹; CD4+ in graft, Median [6, 12]: 1.5e+08 kg⁻¹; CD8+ in graft, Median [6, 12]: 7e+07 kg⁻¹; CD19+ in graft, Median [6, 12]: 5e+07 kg⁻¹; CD34+ in graft, Median [6, 12]: 4.2e+06 kg⁻¹; CD56+ in graft, Median [6, 12]: 1e+07 kg⁻¹; CD3+ in graft, Median (range) [6, 13]: 1.3 (1.2-6.8) ×10^8/kg; CD4+ in graft, Median (range) [6, 13]: 1.1 (0.7-3.2) ×10^8/kg; CD8+ in graft, Median (range) [6, 13]: 0.4 (0.3-3.4) ×10^8/kg; CD34+ in graft, Median (range) [6, 13]: 4.2 (2.5-18.7) ×10^6/kg; CD56+ in graft, Median (range) [6, 13]: 0.2 (0.1-0.5) ×10^8/kg
